Source: the supplement of paper PMC11061612

Assays:
Test in all cases: Bliss excess, mean over the matrix (fraction); higher = more synergy
[1] = tested on: BT-549 (Breast Carcinoma)
Procedure, shortened: (§1)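 Cell lines grown in DMEM/F12 or RPMI with 10% FBS were plated in 1536-well plates and held 24 hours at 37°C, 5% CO2 before 72 hours of exposure to two-drug dose matrices, with DMSO typically at 0.2%. CellTiter-Glo 2.0 luminescence gave viability, which was converted to inhibition. Vehicle wells were set to 0 and blank wells to 1. Combination Emax is the second-highest inhibition in the matrix, and Bliss excess is the observed combination effect minus the expected EA + EB − EA·EB, where EA and EB are the single-agent effects.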

[2] = tested on: C-4-I (Cervical Carcinoma)
Procedure, shortened: as §1

[3] = tested on: EFM-19 (Breast Carcinoma)
Procedure, shortened: as §1

[4] = tested on: HGC-27 (Gastric Carcinoma)
Procedure, shortened: as §1

[5] = tested on: HOP-62 (Lung Adenocarcinoma)
Procedure, shortened: as §1

[6] = tested on: Hs-766T (Pancreatic Carcinoma)
Procedure, shortened: as §1

[7] = tested on: KMOE-2 (Acute Myeloid Leukemia)
Procedure, shortened: as §1

[8] = tested on: LU-65 (Non-Small Cell Lung Carcinoma)
Procedure, shortened: as §1

[9] = tested on: MIA-PaCa-2 (Pancreatic Carcinoma)
Procedure, shortened: as §1

[10] = tested on: MLMA (Other Blood Carcinomas)
Procedure, shortened: as §1

[11] = tested on: NCI-H1915 (Non-Small Cell Lung Carcinoma)
Procedure, shortened: as §1

[12] = tested on: NCI-H358 (Lung Adenocarcinoma)
Procedure, shortened: as §1

[13] = tested on: NEC8 (Other Solid Carcinomas)
Procedure, shortened: as §1

[14] = tested on: NUGC-3 (Gastric Carcinoma)
Procedure, shortened: as §1

[15] = tested on: OVCAR-4 (Ovarian Carcinoma)
Procedure, shortened: as §1

[16] = tested on: PANC-04-03 (Pancreatic Carcinoma)
Procedure, shortened: as §1

[17] = tested on: PWR-1E (Non-Cancerous)
Procedure, shortened: as §1

[18] = tested on: SU8686 (Pancreatic Carcinoma)
Procedure, shortened: as §1

[19] = tested on: SW13 (Other Solid Carcinomas)
Procedure, shortened: as §1

[20] = tested on: VA-ES-BJ (Other Solid Carcinomas)
Procedure, shortened: as §1

Structure (SMILES)	Bliss excess [1]	Bliss excess [2]	Bliss excess [3]	Bliss excess [4]	Bliss excess [5]	Bliss excess [6]	Bliss excess [7]	Bliss excess [8]	Bliss excess [9]	Bliss excess [10]	Bliss excess [11]	Bliss excess [12]	Bliss excess [13]	Bliss excess [14]	Bliss excess [15]	Bliss excess [16]	Bliss excess [17]	Bliss excess [18]	Bliss excess [19]	Bliss excess [20]
Cn1cnc2c(F)c(Nc3ccc(Br)cc3Cl)c(C(=O)NOCCO)cc21 [Selumetinib] + CCN(CCO)CCCOc1ccc2c(Nc3cc(CC(=O)Nc4cccc(F)c4)[nH]n3)ncnc2c1 [AZD2811] (first compound max 10 µM, 7x7, partner max 1 µM)	-0.0216	0.0582	0.0054	-0.0515	-0.0772	-0.0659	-0.0124	-0.0082	0.0585	-0.026	-0.038	-0.0743	-0.0166	0.0179	-0.0468	-0.0339	-0.0175	-0.0179	-0.0919	-0.0263
COc1cccc2c1C(=O)c1c(O)c3c(c(O)c1C2=O)C[C@@](O)(C(=O)CO)C[C@@H]3O[C@H]1C[C@H](N)[C@H](O)[C@H](C)O1 [Doxorubicin] + Cc1cc2ncnn2cc1Nc1ncc2c(n1)n(C1CCOCC1)c(=O)n2C [AZD7648] (first compound max 1 µM, 7x7, partner max 10 µM)	0.0233	0.1	0.0055	0.0171	0.0399	-0.012	0.0867	0.0418	0.0167	-0.0214	0.0154	0.0186	0.0952	0.0285	-0.0056	-0.0394	0.12	-0.0262	0.0466	0.0383
COc1cccc(OCCCN)c1-c1cc(Nc2cnc(C#N)cn2)n[nH]1 [Prexasertib] + O=C(c1cc(Cc2n[nH]c(=O)c3ccccc23)ccc1F)N1CCN(C(=O)C2CC2)CC1 [Olaparib] (first compound max 1 µM, 7x7, partner max 10 µM)	0.0195	-0.0783	-0.0094	0.044	-0.0319	-0.032	0.0279	-0.0678	-0.0781	-0.0442	-0.0002	-0.0809	0.0104	-0.143	-0.0589	-0.0415	-0.211	-0.0504	0.0024	-0.0337
CC1(C)CCC(CN2CCN(c3ccc(C(=O)NS(=O)(=O)c4ccc(NCC5CCOCC5)c([N+](=O)[O-])c4)c(Oc4cnc5[nH]ccc5c4)c3)CC2)=C(c2ccc(Cl)cc2)C1 [Venetoclax] + Cc1cc2ncnn2cc1Nc1ncc2c(n1)n(C1CCOCC1)c(=O)n2C [AZD7648] (first compound max 1 µM, 7x7, partner max 10 µM)	-0.0328	0.0131	-0.0469	-0.0261	-0.0711	-0.0756	-0.0596	-0.0418	-0.0218	-0.0323	0.0029	-0.0207	0.0282	0.0247	-0.0163	-0.0617	-0.0152	-0.0195	0.0127	-0.0341
C=CCn1c(=O)c2cnc(Nc3ccc(N4CCN(C)CC4)cc3)nc2n1-c1cccc(C(C)(C)O)n1 [AZD1775] + O=C(c1cc(Cc2n[nH]c(=O)c3ccccc23)ccc1F)N1CCN(C(=O)C2CC2)CC1 [Olaparib] (first compound max 1 µM, partner max 10 µM)	-0.0528	0.0103	-0.0456	0.0224	-0.0381	0.0002	-0.0248	-0.0598	-0.0344	-0.0914	-0.0223	-0.0184	0.0029	-0.0798	0.0249	-0.0407	-0.0175	-0.0399	-0.0137	-0.0424
CN(CCO)CC[C@H](CSc1ccccc1)Nc1ccc(S(=O)(=O)NC(=O)c2ccc(N3CCC([C@@H](O)c4ccccc4-c4ccc(Cl)cc4)CC3)cc2)cc1S(=O)(=O)C(F)(F)F [AZD4320] + CN(C)CCCOc1ccc(-c2ccc3ncc4c(c3c2)n(C2CCOCC2)c(=O)n4C)cn1 [AZD0156] (first compound max 1 µM, 7x7, partner max 1 µM)	-0.0354	-0.0024	-0.0491	-0.064	-0.0619	-0.087	0.0446	-0.016	-0.0626	0.0214	0.0196	-0.0101	-0.0167	-0.0477	-0.0155	-0.0652	-0.0208	-0.0404	-0.019	-0.0379
COc1cccc(OCCCN)c1-c1cc(Nc2cnc(C#N)cn2)n[nH]1 [Prexasertib] + C[C@@H]1COCCN1C2=NC(=NC(=C2)C3(CC3)[S@](=N)(=O)C)C4=C5C=CNC5=NC=C4 [AZD6738] (first compound max 1 µM, 7x7, partner max 10 µM)	0.0054	-0.0449	-0.0296	-0.057	0.0375	0.0101	-0.0043	-0.0173	-0.105	-0.0514	-0.0396	-0.021	-0.009	-0.019	-0.025	0.0017	0.0243	-0.0315	0.0627	-0.0114
